# Source: patent US9212201B2, “Antifungal and antiparasitic polyene macrolides” (priority 2010, dated 2015)
# Legend:
# C. tropicalis = assay: In vitro antifungal susceptibility CLSI M27-A2 (MIC, MFC); type: cell-based; conditions: C. tropicalis (10)
# C. lusitaniae = assay: as above; type: cell-based; conditions: C. lusitaniae (10)
# C. krusei = assay: as above; type: cell-based; conditions: C. krusei (10)
# C. rugosa = assay: as above; type: cell-based; conditions: C. rugosa (2)
# E. jeanselmei = assay: In vitro antifungal susceptibility CLSI M38-A (MIC); type: cell-based, Exophilia jeanselmei; conditions: 3 isolates
# Protocol: In addition, MFC ([…]) was done for each species. The geometric mean (GM) was calculated for each isolate using all three results. All testing was performed in triplicate to verify the reproducibility of the data.
# Several of the more common molds were also tested and evaluated including five strains of Alternaria, Cladosporium, Scopulariopsis, Acremonium, and Paecilomyces. Also evaluated were some of the more uncommon fungi such as Exophilia jeanselmei (3), Emmonsia parvum (Chrysporium parvum) (2) and Epioccum spp. (2). Conventional ATCC strains of different Candida and Aspergillus species were used as controls.
# Blastomyces dermatitidis = assay: Broth macrodilution MIC/MFC against endemic fungal pathogens; type: cell-based; conditions: for MFC: >96% kill of the inoculum
# Histoplasma capsulatum = type: cell-based; conditions: 4 of the H isolates
# [1] = test system: 14 clinical isolates: Coccidioides, Blastomyces, Histoplasma capsulatum, Paracoccidioides; type: cell-based; conditions: of 14 isolates
# [2] = 28-day toxicology in rats (clinical chemistry, NOAEL)
# [3] = Blastomyces dermatitidis isolate 1
# [4] = Blastomyces dermatitidis isolate 2
# [5] = rat sera, amphotericin B 0.5 mg, intravenously three days a week
# [6] = rat sera, amphotericin B 1.0 mg, intravenously three days a week
# [7] = rat sera, amphotericin B 1.5 mg, intravenously three days a week
compound,measurement,setting,value
"C[C@@H]1[C@H](O)[C@@H](C)/C=C/C=C/C=C/C=C/C=C/C=C/C=C/[C@H](O[C@@H]2O[C@H](C)[C@@H](O)[C@H](N)[C@@H]2O)C[C@@H]2O[C@](O)(C[C@@H](O)C[C@@H](O)[C@H](O)CC[C@@H](O)C[C@@H](O)CC(=O)O[C@H]1C)C[C@H](O)[C@H]2C(=O)O [Amphotericin B, amphotericin B]",GM (geometric mean MIC),C. tropicalis,0.95 µg/mL
same,MFC,C. tropicalis,2 µg/mL
same,MIC50,C. tropicalis,1 µg/mL
same,MIC90,C. tropicalis,1 µg/mL
same,MIC Range,C. tropicalis,0.5 to 1.0 µg/mL
same,GM (geometric mean MIC),C. lusitaniae,0.575 µg/mL
same,MFC,C. lusitaniae,0.5 µg/mL
same,MIC50,C. lusitaniae,0.5 µg/mL
same,MIC90,C. lusitaniae,1.0 µg/mL
same,MIC Range,C. lusitaniae,0.25 to 1.0 µg/mL
same,GM (geometric mean MIC),C. krusei,1.29 µg/mL
same,MFC,C. krusei,2 µg/mL
same,MIC50,C. krusei,1 µg/mL
same,MIC90,C. krusei,2 µg/mL
same,MIC Range,C. krusei,0.5 to 2.0 µg/mL
same,MIC50,C. krusei; listed as amphotericin B,1.0 µg/mL
same,GM (geometric mean MIC),C. rugosa,0.83 µg/mL
same,MFC,C. rugosa,2 µg/mL
same,MIC Range,C. rugosa,0.5 to 1.0 µg/mL
same,GM,E. jeanselmei,4.67 µg/mL
same,MIC50,E. jeanselmei,4 µg/mL
same,MIC Range,E. jeanselmei,2 to 8 µg/mL
same,MIC,Blastomyces dermatitidis; [3],2/2 mcg/mL
same,MFC,Blastomyces dermatitidis; [3],2/2 mcg/mL
same,MIC,Blastomyces dermatitidis; [4],1/1 mcg/mL
same,MFC,Blastomyces dermatitidis; [4],1/1 mcg/mL
same,MFC,Histoplasma capsulatum,0.5 µg/mL
same,MIC,Histoplasma capsulatum,0.5 µg/mL
same,cases in which MFCs equaled MICs,[1],11/14
same,ALB (Albumin),[2]; [5],3.2
same,ALK (Alkaline Phosphatase),[2]; [5],74
same,ALT (Alanine Aminotransferase),[2]; [5],37
same,BUN (Blood Urea Nitrogen),[2]; [5],15
same,Creat (Creatinine),[2]; [5],0.6
same,GLOB (Globulin),[2]; [5],2.6
same,Na (Sodium),[2]; [5],140
same,ALB (Albumin),[2]; [6],3.2
same,ALK (Alkaline Phosphatase),[2]; [6],61
same,ALT (Alanine Aminotransferase),[2]; [6],37
same,BUN (Blood Urea Nitrogen),[2]; [6],16
same,Creat (Creatinine),[2]; [6],0.6
same,GLOB (Globulin),[2]; [6],2.7
same,Na (Sodium),[2]; [6],140
same,TP (Total Protein),[2]; [6],6.0
same,ALB (Albumin),[2]; [7],3.4
same,ALK (Alkaline Phosphatase),[2]; [7],69
same,ALT (Alanine Aminotransferase),[2]; [7],36
same,BUN (Blood Urea Nitrogen),[2]; [7],17
same,Creat (Creatinine),[2]; [7],0.6
same,GLOB (Globulin),[2]; [7],2.4
same,Na (Sodium),[2]; [7],132
same,toxicity,"[2]; rats, intravenously 1.5 mg/kg three times a week over 28 days",No toxicity was observed
